Experiments:
Assay in all cases: Eurofins kinase panel
Format in all cases: biochemical
Settings in all cases: read-out: Inhibition rate (%)
AMPKα1(h) = target: T1, AMPKα1(h) (Homo sapiens, UniProt Q13131)
T1 construct: purchased Eurofins (KinaseProfiler)

CDK6/cyclinD3(h) = target: T2, CDK6/cyclinD3(h) (Homo sapiens, UniProt Q00534)
T2 construct: purchased Eurofins (KinaseProfiler)

DCAMKL3(h) = target: T3, DCAMKL3(h) (Homo sapiens, UniProt Q9C098)
T3 construct: purchased Eurofins (KinaseProfiler)
T3 sequence (Q9C098 1-648): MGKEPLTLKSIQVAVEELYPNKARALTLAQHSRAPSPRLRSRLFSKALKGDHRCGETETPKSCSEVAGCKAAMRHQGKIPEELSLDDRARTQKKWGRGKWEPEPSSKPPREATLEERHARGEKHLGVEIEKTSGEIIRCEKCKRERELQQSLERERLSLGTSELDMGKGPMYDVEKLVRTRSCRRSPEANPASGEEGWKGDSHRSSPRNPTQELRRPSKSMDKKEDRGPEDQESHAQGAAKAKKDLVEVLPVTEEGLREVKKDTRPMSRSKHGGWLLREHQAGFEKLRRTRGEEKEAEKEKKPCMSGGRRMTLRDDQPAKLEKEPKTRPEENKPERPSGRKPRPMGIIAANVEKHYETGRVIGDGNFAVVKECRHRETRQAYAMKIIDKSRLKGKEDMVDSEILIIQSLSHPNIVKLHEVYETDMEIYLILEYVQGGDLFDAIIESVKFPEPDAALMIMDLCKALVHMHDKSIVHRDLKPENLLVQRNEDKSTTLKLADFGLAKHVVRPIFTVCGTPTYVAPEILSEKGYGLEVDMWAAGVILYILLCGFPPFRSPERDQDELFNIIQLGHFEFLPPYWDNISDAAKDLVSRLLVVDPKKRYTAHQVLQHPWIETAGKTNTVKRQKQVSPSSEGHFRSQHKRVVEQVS

EGFR(L858R)(h) = target: T4, EGFR(L858R)(h) (Homo sapiens, UniProt P00533, L858R)
T4 construct: purchased Eurofins (KinaseProfiler)
T4 sequence (P00533 25-1210 L858R): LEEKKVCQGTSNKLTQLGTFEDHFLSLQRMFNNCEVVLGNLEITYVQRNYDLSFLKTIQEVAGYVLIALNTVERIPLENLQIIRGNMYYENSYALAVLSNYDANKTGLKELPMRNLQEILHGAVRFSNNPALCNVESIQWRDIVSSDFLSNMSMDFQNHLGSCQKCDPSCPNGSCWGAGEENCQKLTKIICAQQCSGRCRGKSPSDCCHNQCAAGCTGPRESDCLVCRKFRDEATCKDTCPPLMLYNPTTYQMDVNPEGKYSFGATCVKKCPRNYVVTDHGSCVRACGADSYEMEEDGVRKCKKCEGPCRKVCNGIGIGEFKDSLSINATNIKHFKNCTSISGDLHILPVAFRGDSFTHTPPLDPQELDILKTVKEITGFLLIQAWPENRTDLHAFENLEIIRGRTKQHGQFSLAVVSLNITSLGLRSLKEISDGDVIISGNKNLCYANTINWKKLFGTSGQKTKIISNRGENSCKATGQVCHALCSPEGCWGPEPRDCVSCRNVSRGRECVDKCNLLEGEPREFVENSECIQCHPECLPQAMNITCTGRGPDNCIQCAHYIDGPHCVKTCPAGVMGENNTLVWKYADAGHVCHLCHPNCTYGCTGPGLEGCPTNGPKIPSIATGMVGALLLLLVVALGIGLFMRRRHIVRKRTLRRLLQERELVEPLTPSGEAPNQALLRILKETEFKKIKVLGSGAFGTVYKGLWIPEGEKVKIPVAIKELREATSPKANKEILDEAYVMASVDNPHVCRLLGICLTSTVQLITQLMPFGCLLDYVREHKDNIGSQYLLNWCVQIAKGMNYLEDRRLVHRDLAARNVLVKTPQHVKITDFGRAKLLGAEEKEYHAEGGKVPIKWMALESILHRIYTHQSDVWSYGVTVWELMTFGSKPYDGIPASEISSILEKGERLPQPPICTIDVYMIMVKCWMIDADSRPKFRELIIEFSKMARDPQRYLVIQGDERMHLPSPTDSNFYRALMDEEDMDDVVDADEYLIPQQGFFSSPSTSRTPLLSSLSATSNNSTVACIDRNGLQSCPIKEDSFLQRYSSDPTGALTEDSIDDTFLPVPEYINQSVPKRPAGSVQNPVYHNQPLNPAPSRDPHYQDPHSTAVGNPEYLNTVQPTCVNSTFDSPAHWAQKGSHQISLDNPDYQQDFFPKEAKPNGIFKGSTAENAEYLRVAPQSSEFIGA

LIMK1(h) = target: T5, LIMK1(h) (Homo sapiens, UniProt P53667)
T5 construct: purchased Eurofins (KinaseProfiler)
T5 sequence (P53667 whole entry): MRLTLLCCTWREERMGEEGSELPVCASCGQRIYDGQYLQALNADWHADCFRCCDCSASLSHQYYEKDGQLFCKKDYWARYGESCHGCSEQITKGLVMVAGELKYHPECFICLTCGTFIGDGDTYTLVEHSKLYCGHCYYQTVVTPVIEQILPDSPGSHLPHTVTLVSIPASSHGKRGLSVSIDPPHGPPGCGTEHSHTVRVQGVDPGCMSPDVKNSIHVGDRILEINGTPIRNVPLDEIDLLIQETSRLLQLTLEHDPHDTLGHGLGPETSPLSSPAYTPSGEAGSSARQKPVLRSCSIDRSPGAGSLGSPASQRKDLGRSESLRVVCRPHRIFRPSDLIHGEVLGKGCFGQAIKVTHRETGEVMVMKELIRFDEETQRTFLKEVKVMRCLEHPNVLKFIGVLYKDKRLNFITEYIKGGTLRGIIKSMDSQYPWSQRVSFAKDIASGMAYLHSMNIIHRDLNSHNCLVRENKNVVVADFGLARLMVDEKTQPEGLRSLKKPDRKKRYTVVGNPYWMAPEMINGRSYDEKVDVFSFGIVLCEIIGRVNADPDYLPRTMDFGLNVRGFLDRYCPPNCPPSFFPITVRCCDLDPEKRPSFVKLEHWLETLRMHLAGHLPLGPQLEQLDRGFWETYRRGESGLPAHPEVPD

MINK(h) = target: T6, MINK(h) (Homo sapiens, UniProt Q8N4C8)
T6 construct: purchased Eurofins (KinaseProfiler)
T6 sequence (Q8N4C8 whole entry): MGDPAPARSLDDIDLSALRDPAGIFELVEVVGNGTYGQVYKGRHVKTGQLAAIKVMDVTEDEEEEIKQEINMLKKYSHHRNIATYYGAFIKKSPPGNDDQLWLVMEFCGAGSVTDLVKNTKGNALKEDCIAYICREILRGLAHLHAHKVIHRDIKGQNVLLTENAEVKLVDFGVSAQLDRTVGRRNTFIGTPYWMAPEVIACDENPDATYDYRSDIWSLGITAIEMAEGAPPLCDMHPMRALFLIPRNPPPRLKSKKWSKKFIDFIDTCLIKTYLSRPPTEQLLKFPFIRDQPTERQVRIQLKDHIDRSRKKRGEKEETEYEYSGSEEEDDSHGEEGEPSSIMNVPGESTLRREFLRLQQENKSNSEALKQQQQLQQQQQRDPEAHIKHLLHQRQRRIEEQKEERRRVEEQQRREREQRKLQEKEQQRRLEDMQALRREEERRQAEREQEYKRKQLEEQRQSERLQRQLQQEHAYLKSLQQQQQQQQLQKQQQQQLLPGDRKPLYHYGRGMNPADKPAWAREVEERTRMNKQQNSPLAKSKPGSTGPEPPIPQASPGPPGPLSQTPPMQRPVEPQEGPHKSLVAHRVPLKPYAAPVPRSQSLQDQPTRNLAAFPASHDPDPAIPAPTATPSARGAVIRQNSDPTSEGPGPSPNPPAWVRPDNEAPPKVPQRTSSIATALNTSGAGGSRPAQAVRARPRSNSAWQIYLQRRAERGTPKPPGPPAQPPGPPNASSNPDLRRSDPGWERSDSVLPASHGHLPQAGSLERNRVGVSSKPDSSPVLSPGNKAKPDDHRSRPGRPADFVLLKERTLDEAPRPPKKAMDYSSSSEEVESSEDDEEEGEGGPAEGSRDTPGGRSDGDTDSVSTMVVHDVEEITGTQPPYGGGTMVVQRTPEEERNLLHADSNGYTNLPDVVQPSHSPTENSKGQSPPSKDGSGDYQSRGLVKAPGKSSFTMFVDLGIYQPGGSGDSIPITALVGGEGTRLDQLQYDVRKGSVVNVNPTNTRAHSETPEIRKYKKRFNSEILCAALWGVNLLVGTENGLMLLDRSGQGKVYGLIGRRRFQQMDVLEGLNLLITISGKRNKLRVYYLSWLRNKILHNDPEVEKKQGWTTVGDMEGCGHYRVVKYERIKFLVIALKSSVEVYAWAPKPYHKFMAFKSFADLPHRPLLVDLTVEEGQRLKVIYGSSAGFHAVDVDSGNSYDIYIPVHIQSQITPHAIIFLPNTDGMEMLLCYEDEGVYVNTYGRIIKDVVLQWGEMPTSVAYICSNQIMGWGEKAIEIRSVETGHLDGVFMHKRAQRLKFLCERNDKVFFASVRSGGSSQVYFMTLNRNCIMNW

PAK6(h) = target: T7, PAK6(h) (Homo sapiens, UniProt Q9NQU5)
T7 construct: purchased Eurofins (KinaseProfiler)
T7 sequence (Q9NQU5 whole entry): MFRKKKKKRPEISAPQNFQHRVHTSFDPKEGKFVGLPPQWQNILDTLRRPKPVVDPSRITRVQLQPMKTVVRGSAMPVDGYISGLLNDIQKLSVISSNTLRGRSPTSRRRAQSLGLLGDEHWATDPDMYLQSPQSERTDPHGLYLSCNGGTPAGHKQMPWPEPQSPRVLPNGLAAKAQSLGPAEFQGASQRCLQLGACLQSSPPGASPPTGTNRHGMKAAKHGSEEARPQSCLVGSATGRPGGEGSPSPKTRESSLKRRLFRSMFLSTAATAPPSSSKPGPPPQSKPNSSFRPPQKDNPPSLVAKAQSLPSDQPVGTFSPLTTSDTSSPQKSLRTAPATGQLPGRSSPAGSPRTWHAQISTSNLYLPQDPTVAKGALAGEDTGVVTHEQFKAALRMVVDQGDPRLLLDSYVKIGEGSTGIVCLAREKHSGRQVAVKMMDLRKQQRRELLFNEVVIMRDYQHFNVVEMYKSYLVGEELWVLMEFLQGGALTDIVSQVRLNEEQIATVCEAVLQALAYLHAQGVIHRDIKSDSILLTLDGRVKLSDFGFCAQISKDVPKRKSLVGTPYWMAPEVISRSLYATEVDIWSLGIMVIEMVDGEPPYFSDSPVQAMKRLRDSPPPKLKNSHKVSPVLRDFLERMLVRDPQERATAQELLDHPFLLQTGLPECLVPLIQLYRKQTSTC

PDK1(h) = target: T8, PDK1(h) (Homo sapiens, UniProt O15530)
T8 construct: purchased Eurofins (KinaseProfiler)
T8 sequence (O15530 1-556): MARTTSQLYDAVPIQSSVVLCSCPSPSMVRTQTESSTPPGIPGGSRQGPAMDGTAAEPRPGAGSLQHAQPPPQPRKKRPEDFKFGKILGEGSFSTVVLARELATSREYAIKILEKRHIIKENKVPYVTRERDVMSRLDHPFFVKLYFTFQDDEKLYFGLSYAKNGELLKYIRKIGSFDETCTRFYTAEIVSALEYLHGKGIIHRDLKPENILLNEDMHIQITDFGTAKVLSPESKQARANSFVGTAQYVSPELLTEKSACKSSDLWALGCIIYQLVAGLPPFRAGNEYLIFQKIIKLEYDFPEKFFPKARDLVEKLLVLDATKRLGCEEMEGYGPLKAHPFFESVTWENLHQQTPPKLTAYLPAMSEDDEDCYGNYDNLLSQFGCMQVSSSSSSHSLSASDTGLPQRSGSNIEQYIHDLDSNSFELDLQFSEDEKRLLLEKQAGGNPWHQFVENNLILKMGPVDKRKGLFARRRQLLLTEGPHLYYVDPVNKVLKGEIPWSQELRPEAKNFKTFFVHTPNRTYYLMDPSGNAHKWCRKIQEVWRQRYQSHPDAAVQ

PIP5K1γ(h) = target: T9, PIP5K1γ(h) (Homo sapiens, UniProt O60331)
T9 construct: purchased Eurofins (KinaseProfiler)

PKAcβ(h) = target: T10, PKAcβ(h) (Homo sapiens, UniProt P22694)
T10 construct: purchased Eurofins (KinaseProfiler)

TrkC(h) = target: T11, TrkC(h) (Homo sapiens, UniProt Q16288)
T11 construct: purchased Eurofins (KinaseProfiler)

T2 sequence (Q00534 whole entry): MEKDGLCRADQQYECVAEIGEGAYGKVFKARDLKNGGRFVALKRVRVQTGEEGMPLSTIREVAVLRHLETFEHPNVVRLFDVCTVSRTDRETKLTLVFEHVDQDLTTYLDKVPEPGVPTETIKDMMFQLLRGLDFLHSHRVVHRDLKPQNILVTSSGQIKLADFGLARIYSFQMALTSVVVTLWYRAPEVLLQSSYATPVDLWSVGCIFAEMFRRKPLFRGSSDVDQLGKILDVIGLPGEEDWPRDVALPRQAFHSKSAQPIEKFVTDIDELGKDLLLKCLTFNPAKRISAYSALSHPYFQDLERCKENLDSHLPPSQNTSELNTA
T2 sequence (P30281 whole entry partner): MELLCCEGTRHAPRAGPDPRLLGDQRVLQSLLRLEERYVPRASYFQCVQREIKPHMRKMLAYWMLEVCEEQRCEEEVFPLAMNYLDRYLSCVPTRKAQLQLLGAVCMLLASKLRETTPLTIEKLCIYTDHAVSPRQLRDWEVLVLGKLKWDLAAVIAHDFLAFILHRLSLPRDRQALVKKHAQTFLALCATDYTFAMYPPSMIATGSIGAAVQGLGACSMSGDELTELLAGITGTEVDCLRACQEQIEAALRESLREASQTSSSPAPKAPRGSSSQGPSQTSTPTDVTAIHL

`COc1cc(OC)c(Cl)c(-c2ccc3c(NC(=O)c4ccc(N5CCNC(C)(C)C5)cc4)n[nH]c3n2)c1Cl` [3D185] gave an inhibition at 0.01 µM (AMPKα1(h); 10 nM) of -8%, an inhibition at 0.1 µM (AMPKα1(h); 100 nM) of -6% and an inhibition at 1 µM (AMPKα1(h); 1000 nM) of -13%. The inhibition at 0.01 µM (CDK6/cyclinD3(h); 10 nM) was 9%, the inhibition at 0.1 µM (CDK6/cyclinD3(h); 100 nM) was 15% and the inhibition at 1 µM (CDK6/cyclinD3(h); 1000 nM) was 16%. For the same molecule, the inhibition at 0.01 µM (DCAMKL3(h); 10 nM) was 5%, the inhibition at 0.1 µM (DCAMKL3(h); 100 nM) was 7% and the inhibition at 1 µM (DCAMKL3(h); 1000 nM) was 16%. For the same molecule, the inhibition at 0.01 µM (EGFR(L858R)(h); 10 nM) was 1%, the inhibition at 0.1 µM (EGFR(L858R)(h); 100 nM) was 9% and the inhibition at 1 µM (EGFR(L858R)(h); 1000 nM) was 30%. The inhibition at 0.01 µM (LIMK1(h); 10 nM) was 2%, the inhibition at 0.1 µM (LIMK1(h); 100 nM) was 8% and the inhibition at 1 µM (LIMK1(h); 1000 nM) was 0%. For the same molecule, the inhibition at 0.01 µM (MINK(h); 10 nM) was 28%, the inhibition at 0.1 µM (MINK(h); 100 nM) was 68% and the inhibition at 1 µM (MINK(h); 1000 nM) was 90%. It also gave an inhibition at 0.01 µM (PAK6(h); 10 nM) of -3%, an inhibition at 0.1 µM (PAK6(h); 100 nM) of 12% and an inhibition at 1 µM (PAK6(h); 1000 nM) of -4%. For the same molecule, the inhibition at 0.01 µM (PDK1(h); 10 nM) was -5%, the inhibition at 0.1 µM (PDK1(h); 100 nM) was -14% and the inhibition at 1 µM (PDK1(h); 1000 nM) was -4%. The inhibition at 0.01 µM (PIP5K1γ(h); 10 nM) was 6%, the inhibition at 0.1 µM (PIP5K1γ(h); 100 nM) was 6% and the inhibition at 1 µM (PIP5K1γ(h); 1000 nM) was 10%. It also gave an inhibition at 0.01 µM (PKAcβ(h); 10 nM) of -6%, an inhibition at 0.1 µM (PKAcβ(h); 100 nM) of -11% and an inhibition at 1 µM (PKAcβ(h); 1000 nM) of -11%. For the same molecule, the inhibition at 0.01 µM (TrkC(h); 10 nM) was 36%, the inhibition at 0.1 µM (TrkC(h); 100 nM) was 85% and the inhibition at 1 µM (TrkC(h); 1000 nM) was 98%.
